Results published in ChEMBL document CHEMBL1212733, “Chemical genomics in Escherichia coli identifies an inhibitor of bacterial lipoprotein targeting” (Nat Chem Biol, 2009).
Calls of active or inactive are those of the source. The calls are words filed in the database; no cut-off is given here.

Columns and labels:
[1] = target: T1, Cell division protein FtsA (Escherichia coli (strain K12)) (UniProt P0ABH0); assay: Inhibition of IPTG-stimulated Escherichia coli K-12 ftsA at 8 fold MIC by microarray analysis
T1 sequence (whole entry): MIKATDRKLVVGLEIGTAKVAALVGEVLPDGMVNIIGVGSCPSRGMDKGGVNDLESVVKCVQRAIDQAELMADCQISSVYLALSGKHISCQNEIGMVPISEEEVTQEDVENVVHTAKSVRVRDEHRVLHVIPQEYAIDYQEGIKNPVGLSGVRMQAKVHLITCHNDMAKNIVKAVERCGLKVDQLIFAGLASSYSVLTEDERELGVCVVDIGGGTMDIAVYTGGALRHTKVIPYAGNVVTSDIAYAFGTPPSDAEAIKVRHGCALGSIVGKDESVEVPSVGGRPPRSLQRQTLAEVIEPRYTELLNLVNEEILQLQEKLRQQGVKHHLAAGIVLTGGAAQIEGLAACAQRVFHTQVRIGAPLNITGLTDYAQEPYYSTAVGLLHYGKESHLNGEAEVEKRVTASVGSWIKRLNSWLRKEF

[2] = target: T1, Cell division protein FtsA (Escherichia coli (strain K12)); assay: Inhibition of IPTG-stimulated Escherichia coli K-12 ftsA at 4 fold MIC by microarray analysis
[3] = target: T2, Outer membrane protein TolC (Escherichia coli (strain K12)) (UniProt P02930); assay: Inhibition of IPTG-stimulated Escherichia coli K-12 tolC at 4 fold MIC by microarray analysis
T2 sequence (whole entry): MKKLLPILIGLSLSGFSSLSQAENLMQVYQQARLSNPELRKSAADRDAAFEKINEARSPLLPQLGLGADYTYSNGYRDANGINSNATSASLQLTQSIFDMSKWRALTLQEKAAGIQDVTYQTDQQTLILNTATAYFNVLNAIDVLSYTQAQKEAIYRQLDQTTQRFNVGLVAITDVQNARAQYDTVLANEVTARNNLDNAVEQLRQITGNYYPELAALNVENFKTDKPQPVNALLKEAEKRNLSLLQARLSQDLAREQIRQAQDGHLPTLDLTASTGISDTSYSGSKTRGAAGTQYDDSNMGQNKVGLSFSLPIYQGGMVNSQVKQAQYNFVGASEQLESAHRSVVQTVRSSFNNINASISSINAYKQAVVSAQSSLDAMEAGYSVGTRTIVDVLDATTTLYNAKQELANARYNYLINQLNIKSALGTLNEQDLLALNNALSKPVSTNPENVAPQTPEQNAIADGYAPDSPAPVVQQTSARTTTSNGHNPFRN

[4] = target: T3, Iron-sulfur cluster insertion protein ErpA (Escherichia coli (strain K12)) (UniProt P0ACC3); assay: Inhibition of IPTG-stimulated Escherichia coli K-12 yadR at 8 fold MIC by microarray analysis
T3 sequence (whole entry): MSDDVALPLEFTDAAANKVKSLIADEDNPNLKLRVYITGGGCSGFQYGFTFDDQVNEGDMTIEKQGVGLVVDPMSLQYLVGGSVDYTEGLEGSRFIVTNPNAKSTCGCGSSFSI

[5] = target: T1, Cell division protein FtsA (Escherichia coli (strain K12)); assay: Inhibition of IPTG-stimulated Escherichia coli K-12 ftsA at 16 fold MIC by microarray analysis
[6] = target: UDP-3-O-acyl-N-acetylglucosamine deacetylase (Escherichia coli K-12) (UniProt P0A725); assay: Inhibition of IPTG-stimulated Escherichia coli K-12 envA at 4 fold MIC by microarray analysis
[7] = target: D-alanine--D-alanine ligase B (Escherichia coli K-12) (UniProt P07862); assay: Inhibition of IPTG-stimulated Escherichia coli K-12 ddlB at 4 fold MIC by microarray analysis
[8] = target: T3, Iron-sulfur cluster insertion protein ErpA (Escherichia coli (strain K12)); assay: Inhibition of IPTG-stimulated Escherichia coli K-12 yadR at 4 fold MIC by microarray analysis
[9] = target: D-alanine--D-alanine ligase B (Escherichia coli K-12) (UniProt P07862); assay: Inhibition of IPTG-stimulated Escherichia coli K-12 ddlB at 16 fold MIC by microarray analysis
[10] = target: D-alanine--D-alanine ligase B (Escherichia coli K-12) (UniProt P07862); assay: Inhibition of IPTG-stimulated Escherichia coli K-12 ddlB at 8 fold MIC by microarray analysis
[11] = target: tRNA threonylcarbamoyladenosine biosynthesis protein TsaE (Escherichia coli (strain K12)) (UniProt P0AF67); assay: Inhibition of IPTG-stimulated Escherichia coli K-12 yjeE at 4 fold MIC by microarray analysis
[12] = target: Small ribosomal subunit protein bS18 (Escherichia coli (strain K12)) (UniProt P0A7T7); assay: Inhibition of IPTG-stimulated Escherichia coli K-12 rpSR at 4 fold MIC by microarray analysis
[13] = target: T3, Iron-sulfur cluster insertion protein ErpA (Escherichia coli (strain K12)); assay: Inhibition of IPTG-stimulated Escherichia coli K-12 yadR at 16 fold MIC by microarray analysis
[14] = target: Multidrug efflux pump subunit AcrB (Escherichia coli (strain K12)) (UniProt P31224); assay: Binding affinity to Escherichia coli K-12 MC1061 acrB assessed as susceptibility to compound efflux at 0.01 to 1 ug/ml after 16 hrs by plate reader assay
[15] = target: Multifunctional CCA protein (Escherichia coli (strain K12)) (UniProt P06961); assay: Inhibition of IPTG-stimulated Escherichia coli K-12 cca at 4 fold MIC by microarray analysis
[16] = target: Putative reactive intermediate deaminase TdcF (Escherichia coli (strain K12)) (UniProt P0AGL2); assay: Inhibition of IPTG-stimulated Escherichia coli K-12 yhaR at 4 fold MIC by microarray analysis
[17] = target: CDP-diacylglycerol--glycerol-3-phosphate 3-phosphatidyltransferase (Escherichia coli (strain K12)) (UniProt P0ABF8); assay: Inhibition of IPTG-stimulated Escherichia coli K-12 pgsA at 4 fold MIC by microarray analysis
[18] = target: T4, Uncharacterized protein YdiL (Escherichia coli (strain K12)) (UniProt P76196); assay: Inhibition of IPTG-stimulated Escherichia coli K-12 ydiL at 4 fold MIC by microarray analysis
T4 sequence (whole entry): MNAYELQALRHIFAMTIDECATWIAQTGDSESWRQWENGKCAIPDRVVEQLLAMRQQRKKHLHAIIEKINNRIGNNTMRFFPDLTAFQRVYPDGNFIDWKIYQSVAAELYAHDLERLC

[19] = target: 3-oxoacyl-[acyl-carrier-protein] synthase 1 (Escherichia coli K-12) (UniProt P0A953); assay: Inhibition of IPTG-stimulated Escherichia coli K-12 fabB at 8 fold MIC by microarray analysis
[20] = target: T5, Dihydrofolate synthase/folylpolyglutamate synthase (Escherichia coli (strain K12)) (UniProt P08192); assay: Inhibition of IPTG-stimulated Escherichia coli K-12 folC at 4 fold MIC by microarray analysis
T5 sequence (whole entry): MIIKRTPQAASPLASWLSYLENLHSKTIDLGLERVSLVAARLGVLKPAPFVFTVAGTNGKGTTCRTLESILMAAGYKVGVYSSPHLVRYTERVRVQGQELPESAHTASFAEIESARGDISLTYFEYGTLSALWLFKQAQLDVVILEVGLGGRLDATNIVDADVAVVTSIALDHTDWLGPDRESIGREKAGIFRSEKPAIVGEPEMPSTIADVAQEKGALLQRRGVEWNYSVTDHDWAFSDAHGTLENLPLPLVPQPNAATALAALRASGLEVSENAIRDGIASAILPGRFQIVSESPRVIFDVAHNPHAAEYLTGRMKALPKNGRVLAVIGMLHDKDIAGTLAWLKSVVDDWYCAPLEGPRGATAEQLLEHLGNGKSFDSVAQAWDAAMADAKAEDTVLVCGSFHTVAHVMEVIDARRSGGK

[21] = target: 3-oxoacyl-[acyl-carrier-protein] synthase 1 (Escherichia coli K-12) (UniProt P0A953); assay: Inhibition of IPTG-stimulated Escherichia coli K-12 fabB at 4 fold MIC by microarray analysis
[22] = target: T5, Dihydrofolate synthase/folylpolyglutamate synthase (Escherichia coli (strain K12)); assay: Inhibition of IPTG-stimulated Escherichia coli K-12 folC at 16 fold MIC by microarray analysis
[23] = target: Farnesyl diphosphate synthase (Escherichia coli K-12) (UniProt P22939); assay: Inhibition of IPTG-stimulated Escherichia coli K-12 ispA at 4 fold MIC by microarray analysis
[24] = target: Acyl carrier protein (Escherichia coli (strain K12)) (UniProt P0A6A8); assay: Inhibition of IPTG-stimulated Escherichia coli K-12 acpP at 4 fold MIC by microarray analysis
[25] = target: Octaprenyl diphosphate synthase (Escherichia coli (strain K12)) (UniProt P0AD57); assay: Inhibition of IPTG-stimulated Escherichia coli K-12 ispB at 8 fold MIC by microarray analysis
[26] = target: Uncharacterized protein YdfB (Escherichia coli (strain K12)) (UniProt P29009); assay: Inhibition of IPTG-stimulated Escherichia coli K-12 ydfB at 4 fold MIC by microarray analysis
[27] = target: 1-acyl-sn-glycerol-3-phosphate acyltransferase (Escherichia coli (strain K12)) (UniProt P26647); assay: Inhibition of IPTG-stimulated Escherichia coli K-12 plsC at 4 fold MIC by microarray analysis
[28] = target: UDP-N-acetylmuramoyl-L-alanyl-D-glutamate--2,6-diaminopimelate ligase (Escherichia coli (strain K12)) (UniProt P22188); assay: Inhibition of IPTG-stimulated Escherichia coli K-12 murE at 4 fold MIC by microarray analysis
[29] = target: Large ribosomal subunit protein bL28 (Escherichia coli (strain K12)) (UniProt P0A7M2); assay: Inhibition of IPTG-stimulated Escherichia coli K-12 rpmB at 4 fold MIC by microarray analysis
[30] = target: UDP-N-acetylglucosamine 1-carboxyvinyltransferase (Escherichia coli K-12) (UniProt P0A749); assay: Inhibition of IPTG-stimulated Escherichia coli K-12 murA at 4 fold MIC by microarray analysis
[31] = target: T2, Outer membrane protein TolC (Escherichia coli (strain K12)); assay: Inhibition of IPTG-stimulated Escherichia coli K-12 tolC at 16 fold MIC by microarray analysis
[32] = target: Octaprenyl diphosphate synthase (Escherichia coli (strain K12)) (UniProt P0AD57); assay: Inhibition of IPTG-stimulated Escherichia coli K-12 ispB at 4 fold MIC by microarray analysis
[33] = target: Fructose-bisphosphate aldolase class 2 (Escherichia coli K-12) (UniProt P0AB71); assay: Inhibition of IPTG-stimulated Escherichia coli K-12 fbaA at 4 fold MIC by microarray analysis
[34] = target: Guanylate kinase (Escherichia coli (strain K12)) (UniProt P60546); assay: Inhibition of IPTG-stimulated Escherichia coli K-12 gmk at 4 fold MIC by microarray analysis
[35] = target: Acyl carrier protein (Escherichia coli (strain K12)) (UniProt P0A6A8); assay: Inhibition of IPTG-stimulated Escherichia coli K-12 acpP at 8 fold MIC by microarray analysis

Chain of Octaprenyl diphosphate synthase (Escherichia coli (strain K12)) (P0AD57 whole entry): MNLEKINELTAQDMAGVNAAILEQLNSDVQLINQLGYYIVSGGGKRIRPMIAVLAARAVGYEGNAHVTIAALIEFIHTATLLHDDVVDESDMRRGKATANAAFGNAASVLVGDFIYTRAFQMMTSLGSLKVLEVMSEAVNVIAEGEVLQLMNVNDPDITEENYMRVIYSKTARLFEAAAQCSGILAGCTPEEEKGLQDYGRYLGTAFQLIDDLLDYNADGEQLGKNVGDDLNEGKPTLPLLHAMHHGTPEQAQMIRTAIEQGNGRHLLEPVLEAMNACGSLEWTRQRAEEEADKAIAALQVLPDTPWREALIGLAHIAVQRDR
Chain of Acyl carrier protein (Escherichia coli (strain K12)) (P0A6A8 whole entry): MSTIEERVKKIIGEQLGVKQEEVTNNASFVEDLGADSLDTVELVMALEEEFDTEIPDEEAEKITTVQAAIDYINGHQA
Chain of 3-oxoacyl-[acyl-carrier-protein] synthase 1 (Escherichia coli K-12) (P0A953 whole entry): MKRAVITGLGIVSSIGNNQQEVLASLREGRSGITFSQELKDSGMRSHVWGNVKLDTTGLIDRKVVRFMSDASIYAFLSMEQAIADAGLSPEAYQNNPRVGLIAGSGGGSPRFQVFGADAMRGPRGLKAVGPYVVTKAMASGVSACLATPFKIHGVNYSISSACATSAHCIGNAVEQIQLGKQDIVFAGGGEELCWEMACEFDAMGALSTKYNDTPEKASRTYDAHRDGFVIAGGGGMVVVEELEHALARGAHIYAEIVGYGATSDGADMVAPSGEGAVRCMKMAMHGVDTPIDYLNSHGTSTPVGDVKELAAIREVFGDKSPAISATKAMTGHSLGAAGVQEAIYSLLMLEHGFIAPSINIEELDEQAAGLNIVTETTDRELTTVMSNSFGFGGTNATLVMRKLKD
Chain of Guanylate kinase (Escherichia coli (strain K12)) (P60546 whole entry): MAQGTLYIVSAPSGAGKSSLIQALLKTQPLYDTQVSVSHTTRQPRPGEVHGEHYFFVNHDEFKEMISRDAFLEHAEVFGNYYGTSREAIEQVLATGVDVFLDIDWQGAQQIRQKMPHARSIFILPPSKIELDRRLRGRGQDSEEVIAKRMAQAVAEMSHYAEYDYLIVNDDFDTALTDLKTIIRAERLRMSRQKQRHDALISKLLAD
Chain of UDP-N-acetylglucosamine 1-carboxyvinyltransferase (Escherichia coli K-12) (P0A749 whole entry): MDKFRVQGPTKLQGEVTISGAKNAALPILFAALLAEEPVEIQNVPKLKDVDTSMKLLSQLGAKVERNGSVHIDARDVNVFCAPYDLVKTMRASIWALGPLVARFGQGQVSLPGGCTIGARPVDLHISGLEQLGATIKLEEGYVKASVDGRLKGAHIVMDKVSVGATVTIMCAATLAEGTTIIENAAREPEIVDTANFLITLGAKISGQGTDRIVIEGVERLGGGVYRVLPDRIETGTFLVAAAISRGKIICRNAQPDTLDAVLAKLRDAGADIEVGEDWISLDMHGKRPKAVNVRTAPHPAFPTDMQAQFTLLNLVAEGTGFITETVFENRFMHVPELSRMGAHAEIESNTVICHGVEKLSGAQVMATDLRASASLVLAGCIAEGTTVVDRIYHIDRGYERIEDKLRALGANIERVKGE
Chain of Farnesyl diphosphate synthase (Escherichia coli K-12) (P22939 whole entry): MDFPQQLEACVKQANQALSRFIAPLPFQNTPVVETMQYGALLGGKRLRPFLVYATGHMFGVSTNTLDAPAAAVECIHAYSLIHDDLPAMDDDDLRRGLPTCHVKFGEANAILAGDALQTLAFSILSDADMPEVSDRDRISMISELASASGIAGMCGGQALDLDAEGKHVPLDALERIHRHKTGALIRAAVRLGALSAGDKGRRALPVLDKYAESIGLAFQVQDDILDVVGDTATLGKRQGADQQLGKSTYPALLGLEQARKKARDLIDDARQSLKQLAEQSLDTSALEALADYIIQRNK
Chain of Multifunctional CCA protein (Escherichia coli (strain K12)) (P06961 whole entry): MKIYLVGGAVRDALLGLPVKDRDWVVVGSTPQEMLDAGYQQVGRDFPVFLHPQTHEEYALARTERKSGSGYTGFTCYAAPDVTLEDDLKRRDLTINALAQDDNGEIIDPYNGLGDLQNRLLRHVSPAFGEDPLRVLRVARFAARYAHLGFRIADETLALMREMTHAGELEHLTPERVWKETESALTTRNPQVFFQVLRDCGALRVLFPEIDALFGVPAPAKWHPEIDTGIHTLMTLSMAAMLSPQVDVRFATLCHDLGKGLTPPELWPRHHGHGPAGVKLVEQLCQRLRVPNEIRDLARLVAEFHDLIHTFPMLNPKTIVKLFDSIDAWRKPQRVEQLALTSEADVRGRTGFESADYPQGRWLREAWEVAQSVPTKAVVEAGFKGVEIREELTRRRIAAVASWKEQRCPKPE
Chain of UDP-3-O-acyl-N-acetylglucosamine deacetylase (Escherichia coli K-12) (P0A725 whole entry): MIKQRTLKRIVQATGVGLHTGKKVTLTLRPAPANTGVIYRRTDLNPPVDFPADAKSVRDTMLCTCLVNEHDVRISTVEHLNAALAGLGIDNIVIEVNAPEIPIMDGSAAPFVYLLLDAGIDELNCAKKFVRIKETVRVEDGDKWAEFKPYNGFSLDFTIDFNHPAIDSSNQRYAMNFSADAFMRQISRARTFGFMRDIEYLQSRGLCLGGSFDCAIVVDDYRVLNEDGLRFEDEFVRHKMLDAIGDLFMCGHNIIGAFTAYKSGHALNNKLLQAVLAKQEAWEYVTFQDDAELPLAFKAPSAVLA
Chain of CDP-diacylglycerol--glycerol-3-phosphate 3-phosphatidyltransferase (Escherichia coli (strain K12)) (P0ABF8 whole entry): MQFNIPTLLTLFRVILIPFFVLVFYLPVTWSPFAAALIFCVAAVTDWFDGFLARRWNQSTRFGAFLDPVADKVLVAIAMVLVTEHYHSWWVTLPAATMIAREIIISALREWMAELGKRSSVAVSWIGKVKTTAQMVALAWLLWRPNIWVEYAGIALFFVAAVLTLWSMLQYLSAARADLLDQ
Chain of Fructose-bisphosphate aldolase class 2 (Escherichia coli K-12) (P0AB71 whole entry): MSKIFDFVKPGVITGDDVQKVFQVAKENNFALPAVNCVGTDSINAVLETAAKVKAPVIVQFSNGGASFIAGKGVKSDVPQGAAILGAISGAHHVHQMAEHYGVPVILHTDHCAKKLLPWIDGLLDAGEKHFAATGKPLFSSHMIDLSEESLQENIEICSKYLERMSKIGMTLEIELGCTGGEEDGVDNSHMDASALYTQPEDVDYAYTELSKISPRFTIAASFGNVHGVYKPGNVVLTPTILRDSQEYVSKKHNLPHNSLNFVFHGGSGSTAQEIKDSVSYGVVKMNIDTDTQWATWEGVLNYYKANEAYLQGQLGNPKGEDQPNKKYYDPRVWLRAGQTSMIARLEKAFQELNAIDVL
Chain of UDP-N-acetylmuramoyl-L-alanyl-D-glutamate--2,6-diaminopimelate ligase (Escherichia coli (strain K12)) (P22188 whole entry): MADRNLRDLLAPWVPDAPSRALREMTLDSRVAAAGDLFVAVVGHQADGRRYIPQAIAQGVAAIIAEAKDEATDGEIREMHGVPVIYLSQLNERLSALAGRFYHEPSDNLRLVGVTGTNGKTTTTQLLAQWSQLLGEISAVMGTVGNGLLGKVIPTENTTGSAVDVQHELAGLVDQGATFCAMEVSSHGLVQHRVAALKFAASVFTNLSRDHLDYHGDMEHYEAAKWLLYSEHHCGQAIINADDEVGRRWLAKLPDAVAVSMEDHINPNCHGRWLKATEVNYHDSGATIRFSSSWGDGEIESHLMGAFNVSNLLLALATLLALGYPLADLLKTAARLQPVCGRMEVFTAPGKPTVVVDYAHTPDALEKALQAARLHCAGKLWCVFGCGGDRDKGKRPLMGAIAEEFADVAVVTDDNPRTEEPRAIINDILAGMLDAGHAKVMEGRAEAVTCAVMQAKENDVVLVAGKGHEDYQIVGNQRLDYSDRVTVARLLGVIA
Chain of Putative reactive intermediate deaminase TdcF (Escherichia coli (strain K12)) (P0AGL2 whole entry): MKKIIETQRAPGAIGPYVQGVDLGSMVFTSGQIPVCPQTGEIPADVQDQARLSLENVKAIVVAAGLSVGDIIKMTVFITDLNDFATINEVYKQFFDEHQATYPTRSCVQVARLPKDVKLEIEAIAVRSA
Chain of 1-acyl-sn-glycerol-3-phosphate acyltransferase (Escherichia coli (strain K12)) (P26647 whole entry): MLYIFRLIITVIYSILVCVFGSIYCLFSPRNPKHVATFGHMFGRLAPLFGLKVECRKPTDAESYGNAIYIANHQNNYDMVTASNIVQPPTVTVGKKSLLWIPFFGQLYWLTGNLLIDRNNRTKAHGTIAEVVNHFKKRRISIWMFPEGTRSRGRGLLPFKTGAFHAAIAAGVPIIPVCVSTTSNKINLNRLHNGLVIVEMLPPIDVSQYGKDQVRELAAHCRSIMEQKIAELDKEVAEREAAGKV
Chain of Uncharacterized protein YdfB (Escherichia coli (strain K12)) (P29009 whole entry): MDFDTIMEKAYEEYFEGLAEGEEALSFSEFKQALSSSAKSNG

SMILES: N[C@@H]1CONC1=O
- inhibition [1]: Active
- inhibition [2]: Active
- inhibition [3]: Active
- inhibition [4]: Active
- inhibition [5]: Active
- inhibition [6]: Active
- inhibition [7]: Active
- inhibition [8]: Active
- inhibition [9]: Active
- inhibition [10]: Active
- inhibition [11]: Active
- inhibition [12]: Active
- inhibition [13]: Active

SMILES: CCn1cc(C(=O)O)c(=O)c2cc(F)c(N3CCNCC3)cc21
- Activity [14]: inactive

SMILES: C[C@@H]1O[C@@H]1P(=O)(O)O
- inhibition [15]: Active
- inhibition [16]: Active
- inhibition [17]: Active
- inhibition [18]: Active
- inhibition [19]: Active
- inhibition [20]: Active
- inhibition [21]: Active
- inhibition [22]: Active
- inhibition [23]: Active
- inhibition [24]: Active
- inhibition [25]: Active
- inhibition [26]: Active
- inhibition [27]: Active
- inhibition [28]: Active
- inhibition [29]: Active
- inhibition [30]: Active
- inhibition [31]: Active
- inhibition [32]: Active
- inhibition [33]: Active
- inhibition [34]: Active
- inhibition [35]: Active
